{"source": "patent US11564928B1", "about": "“Cannabinoid receptor type 2 (CB2) modulators and uses thereof” (Teon Therapeutics, Inc., priority 2020, dated 2023)", "key": {"human recombinant CB1R": {"target": "human recombinant CB1R (Homo sapiens (Human), UniProt P21554)", "sequence (P21554 whole entry)": "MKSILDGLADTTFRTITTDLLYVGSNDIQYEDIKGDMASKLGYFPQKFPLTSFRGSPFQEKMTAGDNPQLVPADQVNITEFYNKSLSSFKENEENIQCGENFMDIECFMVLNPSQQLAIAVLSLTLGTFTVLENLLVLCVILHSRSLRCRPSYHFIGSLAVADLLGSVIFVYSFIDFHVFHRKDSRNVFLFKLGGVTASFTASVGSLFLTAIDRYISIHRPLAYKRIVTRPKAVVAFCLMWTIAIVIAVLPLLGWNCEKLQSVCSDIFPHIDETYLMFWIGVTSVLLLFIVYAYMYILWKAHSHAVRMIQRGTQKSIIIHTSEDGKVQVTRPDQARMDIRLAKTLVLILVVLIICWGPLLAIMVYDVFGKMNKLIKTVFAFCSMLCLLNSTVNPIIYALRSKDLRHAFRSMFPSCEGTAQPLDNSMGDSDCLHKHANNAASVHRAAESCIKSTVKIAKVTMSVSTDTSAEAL", "test": "CB1 receptor binding assay ([3H]CP-55,940 displacement, HEK-293 membranes)", "details": "membranes of HEK-293 cells with human recombinant CB1R, [3H]CP-55,940, read-out: CB1 IC50", "procedure,_shortened": "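Membranes from HEK-293 cells expressing human recombinant CB1R or CB2R were incubated with [3H]CP-55,940 and compound for 120 min at 37 °C in duplicate. The CB2R incubation buffer was 50 mM Tris-HCl, 5 mM MgCl2, 1 mM CaCl2, 0.2% BSA, pH 7.4. Bound radioactivity was filtered and counted, and IC50 was converted to Ki by Cheng–Prusoff.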"}, "human CB2 receptor": {"target": "human CB2 receptor (Homo sapiens (Human), UniProt P34972)", "sequence (P34972 whole entry)": "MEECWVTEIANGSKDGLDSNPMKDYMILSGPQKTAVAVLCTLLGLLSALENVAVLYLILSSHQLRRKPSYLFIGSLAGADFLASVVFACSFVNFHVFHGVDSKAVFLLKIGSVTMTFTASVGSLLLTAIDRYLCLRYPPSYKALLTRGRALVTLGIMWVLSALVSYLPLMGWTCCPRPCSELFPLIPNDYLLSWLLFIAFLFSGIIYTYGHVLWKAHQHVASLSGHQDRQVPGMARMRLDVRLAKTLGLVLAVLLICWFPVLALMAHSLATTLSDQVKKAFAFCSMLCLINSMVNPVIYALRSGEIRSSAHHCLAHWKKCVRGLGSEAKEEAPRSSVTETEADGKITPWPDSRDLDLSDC", "test": "CB2 receptor binding assay ([3H]CP-55,940 displacement, HEK-293 membranes)"}, "[1]": {"details": "membranes of HEK-293 cells with human recombinant CB2R, [3H]CP-55,940, class symbols, read-out: CB2 IC50"}, "[2]": {"details": "membranes of HEK-293 cells with human recombinant CB2R, [3H]CP-55,940, read-out: CB2 IC50"}}, "note": "Where two headings read alike, the source gives them in different places.", "data": [{"smiles": "CC12CC(NC(=O)c3c(O)c4cccnc4n(Cc4ccc(F)cc4)c3=O)(C1)C2", "note": "[Compound 141, 1-[(4-fluorophenyl)methyl]-4-hydroxy-N-(3-methyl-1-bicyclo[1.1.1]pentanyl)-2-oxo-1,8-naphthyridine-3-carboxamide]", "values": [{"measurement": "IC50", "setting": "human recombinant CB1R; class symbols", "value": "> 1000", "unit": "nM"}, {"measurement": "IC50", "setting": "human CB2 receptor", "value": "100 to 999", "unit": "nM"}]}, {"smiles": "O=C(NC12CC(C1)C2)c1c(O)c2cc(-c3ccc(F)cc3)cnc2n(Cc2ccncc2)c1=O", "note": "[Compound 129, N-(bicyclo[1.1.1]pentan-1-yl)-6-(4-fluorophenyl)-4-hydroxy-2-oxo-1-(pyridin-4-ylmethyl)-1,2-dihydro-1,8-naphthyridine-3-carboxamide]", "values": [{"measurement": "IC50", "setting": "human recombinant CB1R; class symbols", "value": "> 1000", "unit": "nM"}, {"measurement": "IC50", "setting": "human CB2 receptor; [1]", "value": "> 1000", "unit": "nM"}]}, {"smiles": "O=C(NC1CC2(CCC2)C1)c1cc2cc(-c3ccncn3)cnc2n(CCN2CCOCC2)c1=O", "note": "[Compound 35, 1-(2-morpholinoethyl)-2-oxo-6-(pyrimidin-4-yl)-N-(spiro[3.3]heptan-2-yl)-1,2-dihydro-1,8-naphthyridine-3-carboxamide]", "values": [{"measurement": "IC50", "setting": "human recombinant CB1R", "value": 358, "unit": "nM"}, {"measurement": "IC50", "setting": "human CB2 receptor; [2]", "value": 7.5, "unit": "nM"}]}, {"smiles": "C[C@H]1CC[C@@H](NC(=O)c2c(O)c3cc(-c4ccc(F)cc4)cnc3n(CCN3CCOCC3)c2=O)CC1", "note": "[Compound 109, 6-(4-fluorophenyl)-4-hydroxy-N-((1s, 4s)-4-methylcyclohexyl)-1-(2-morpholinoethyl)-2-oxo-1,2-dihydro-1,8-naphthyridine-3-carboxamide]", "values": [{"measurement": "IC50", "setting": "human recombinant CB1R; class symbols", "value": "> 1000", "unit": "nM"}, {"measurement": "IC50", "setting": "human CB2 receptor; [1]", "value": "< 100", "unit": "nM"}]}, {"smiles": "C[C@H]1C[C@H](NC(=O)c2c(O)c3cc(-c4ccc(F)cc4)cnc3n(CCN3CCOCC3)c2=O)C1", "note": "[Compound 114, 6-(4-fluorophenyl)-4-hydroxy-N-((1r, 3r)-3-methylcyclobutyl)-1-(2-morpholinoethyl)-2-oxo-1,2-dihydro-1,8-naphthyridine-3-carboxamide]", "values": [{"measurement": "IC50", "setting": "human recombinant CB1R; class symbols", "value": "> 1000", "unit": "nM"}, {"measurement": "IC50", "setting": "human CB2 receptor", "value": "100 to 999", "unit": "nM"}]}, {"smiles": "COc1ccc(-c2cnc3c(c2)cc(C(=O)NC2CCC(C)(C)CC2)c(=O)n3CCN2CCOCC2)cc1", "note": "[Compound 26, N-(4,4-dimethylcyclohexyl)-6-(4-methoxyphenyl)-1-(2-morpholinoethyl)-2-oxo-1,2-dihydro-1,8-naphthyridine-3-carboxamide]", "values": [{"measurement": "IC50", "setting": "human recombinant CB1R", "value": "> 10000", "unit": "nM"}, {"measurement": "IC50", "setting": "human CB2 receptor; [2]", "value": 2.2, "unit": "nM"}]}, {"smiles": "O=C(NC1CC2(CCC2)C1)c1c(O)c2cccnc2n(Cc2ccc(F)cc2)c1=O", "note": "[Compound 134, 1-(4-fluorobenzyl)-4-hydroxy-2-oxo-N-(spiro[3.3]heptan-2-yl)-1,2-dihydro-1,8-naphthyridine-3-carboxamide]", "values": [{"measurement": "IC50", "setting": "human recombinant CB1R; class symbols", "value": "> 1000", "unit": "nM"}, {"measurement": "IC50", "setting": "human CB2 receptor", "value": "100 to 999", "unit": "nM"}]}, {"smiles": "O=C(NC1CC2(CC2)C1)c1c(O)c2cc(-c3ccc(F)cc3)cnc2n(CCN2CCOCC2)c1=O", "note": "[Compound 112, 6-(4-fluorophenyl)-4-hydroxy-1-(2-morpholinoethyl)-2-oxo-N-(spiro[2.3]hexan-5-yl)-1,2-dihydro-1,8-naphthyridine-3-carboxamide]", "values": [{"measurement": "IC50", "setting": "human recombinant CB1R; class symbols", "value": "> 1000", "unit": "nM"}, {"measurement": "IC50", "setting": "human CB2 receptor; [1]", "value": "< 100", "unit": "nM"}]}, {"smiles": "O=C(NC12CCC(CC1)CC2)c1c(O)c2cc(-c3ccc(F)cc3)cnc2n(CCN2CCOCC2)c1=O", "note": "[Compound 116, N-(bicyclo[2.2.2]octan-1-yl)-6-(4-fluorophenyl)-4-hydroxy-1-(2-morpholinoethyl)-2-oxo-1,2-dihydro-1,8-naphthyridine-3-carboxamide]", "values": [{"measurement": "IC50", "setting": "human recombinant CB1R", "value": 1480, "unit": "nM"}, {"measurement": "IC50", "setting": "human CB2 receptor; [2]", "value": 31, "unit": "nM"}]}, {"smiles": "CC(NC(=O)c1c(O)c2cc(Br)cnc2n(Cc2ccc(F)cc2)c1=O)c1ccc(C#N)cc1", "note": "(stereo not shown) [Compound 3, 6-bromo-N-(1-(4-cyanophenyl)ethyl)-1-(4-fluorobenzyl)-4-hydroxy-2-oxo-1,2-dihydro-1,8-naphthyridine-3-carboxamide]", "values": [{"measurement": "IC50", "setting": "human recombinant CB1R; class symbols", "value": "> 1000", "unit": "nM"}, {"measurement": "IC50", "setting": "human CB2 receptor", "value": "100 to 999", "unit": "nM"}]}, {"smiles": "O=C(NC12CC(C1)C2)c1c(O)c2cc(C3CCC3)cnc2n(CCN2CCOCC2)c1=O", "note": "[Compound 127, N-(bicyclo[1.1.1]pentan-1-yl)-6-cyclobutyl-4-hydroxy-1-(2-morpholinoethyl)-2-oxo-1,2-dihydro-1,8-naphthyridine-3-carboxamide]", "values": [{"measurement": "IC50", "setting": "human recombinant CB1R; class symbols", "value": "> 1000", "unit": "nM"}, {"measurement": "IC50", "setting": "human CB2 receptor; [1]", "value": "> 1000", "unit": "nM"}]}]}
